From article PMC12368478, “Targeting Ubiquitin‐Specific Protease 7 with Novel 5‐Amino‐Pyrazole Inhibitors: Design, Synthesis, and Biological Evaluation” (Chemmedchem, 2025)
Where “and” joins values, the source holds several entries; their conditions need not be identical. Identical values can stand only once.

Assays:
[1] = system: HeLa cervix epithelioid carcinoma; test: MTT assay, HeLa; type: cell-based; conditions: 10 μM, 48 h
Method: (§1) To evaluate the cytotoxicity of the novel USP‐7 inhibitors, compounds 1a–d were preliminary screened at a fixed concentration of 10 μM against eight different cancer cell lines (namely, MCF7 breast adenocarcinoma, SKOV‐3 ovarian adenocarcinoma, Hep‐G2 hepatocellular carcinoma, SK‐Mel28 cutaneous melanoma, MDA‐MB‐231 breast adenocarcinoma, SK‐BR3 breast adenocarcinoma, HeLa cervix epithelioid carcinoma, and A549 lung adenocarcinoma) as well as nonmutated human embryonic fibroblasts (GM‐6114). Cisplatinum (Cis‐Pt) was used as the reference compound.
(§2) To perform the MTT assay, SK‐BR3 (breast adenocarcinoma, Biologic Bank and Cell Factory, IRCCS Policlinico San Martino, Genoa, Italy), MCF‐7 (breast adenocarcinoma, Biologic Bank and Cell Factory, IRCCS Policlinico San Martino, Genoa, Italy), SK‐Mel28 (skin melanoma, Biologic Bank and Cell Factory, IRCCS Policlinico San Martino, Genoa, Italy), Hep‐G2 (hepatocellular carcinoma, ATCC, Manassas, VA), SKOV‐3 (ovarian adenocarcinoma, ATCC, Manassas, VA), MDA‐MB‐231 (breast adenocarcinoma, Biologic Bank and Cell Factory, IRCCS Policlinico San Martino, Genoa, Italy), HeLa (cervical adenocarcinoma, Biologic Bank and Cell Factory, IRCCS Policlinico San Martino, Genoa, Italy), A549 (lung adenocarcinoma, ATCC, Manassas, VA), and GM‐6114 (normal human embryonic fibroblast, ATCC, Manassas, VA) cell lines were cultured in Dulbecco's modified eagle medium (DMEM added with 10% Fetal bovine serum, 2 mM Glutamine, and 1% pen‐strep) and incubated in a humidified environment at 37 °C with 5% CO2. Reagents were acquired from EuroClone (Milan, Italy). All chemical compounds were dissolved in DMSO to give a 10 mM stock solution. Then, after an intermediate dilution in growth medium, they were added to the cultured cells at a final working concentration of 10 μM and incubated for 48 h. At the end of the incubation, 30 μL of MTT (3‐(4,5‐dimethyl‐2‐thiazolyl)‐2,5‐diphenyl‐2H‐tetrazolium bromide) at a concentration of 2 mg mL^−1 in phosphate buffered saline (PBS) were added into each well and further incubated for 4 h. Finally, the supernatants were removed and 100 μL well of DMSO were added to each well to dissolve the Formazan precipitates. After 20 min, plates were read at 570 nm. Results are expressed as the percentage of the control samples where cells have been treated with the same amount of DMSO but without any chemical compound. The assay was repeated three times, and a single compound was tested six times. Means and standard deviations were calculated.

[2] = system: MCF7 breast adenocarcinoma; test: MTT assay, MCF7; type: cell-based; conditions: MCF7, 10 μM, 48 h
Method: as §1, §2

[3] = system: SK‐BR3 breast adenocarcinoma; test: MTT assay, SK‐BR3; type: cell-based; conditions: SK‐BR3, 10 μM, 48 h
Method: as §1, §2

[4] = system: SK‐Mel28 cutaneous melanoma; test: MTT assay, SK‐Mel28; type: cell-based; conditions: SK‐Mel28, 10 μM, 48 h
Method: as §1, §2

A549 lung adenocarcinoma = test: MTT assay, A549; type: cell-based; conditions: A549, 10 μM, 48 h
Method: as §1, §2

[5] = system: SKOV‐3 ovarian adenocarcinoma; test: MTT assay, SKOV‐3; type: cell-based; conditions: SKOV‐3, 10 μM, 48 h
Method: as §1, §2

[6] = system: Hep‐G2 hepatocellular carcinoma; test: MTT assay, Hep‐G2; type: cell-based; conditions: Hep‐G2, 10 μM, 48 h
Method: as §1, §2

[7] = system: MDA‐MB‐231 breast adenocarcinoma; test: MTT assay, MDA‐MB‐231; type: cell-based; conditions: MDA‐MB‐231, 10 μM, 48 h
Method: as §1, §2

[8] = system: nonmutated human embryonic fibroblasts (GM‐6114); test: MTT assay, GM‐6114; type: cell-based; conditions: GM‐6114 healthy fibroblasts, 10 μM, 48 h
Method: as §1, §2

recombinant USP‐7 = molecular target: T1, recombinant USP‐7 (Homo sapiens, UniProt Q93009); test: USP‐7 fluorescence-based enzymatic assay (Ub‐AMC); type: biochemical; conditions: recombinant USP‐7, Ubiquitin–AMC substrate, 30 min preincubation; average of three separate experiments
T1 construct: purchased BPS Bioscience 79,256
Method: The inhibition efficiency of compounds 1a–d and 2a–d on the USP‐7 enzyme was assessed using a fluorescence‐based enzymatic assay, employing Ubiquitin–AMC as a substrate. In this assay, USP‐7 hydrolyzes Ubiquitin–AMC, leading to an increase in fluorescence signal. To evaluate the inhibitory potential, recombinant USP‐7 was preincubated with varying concentrations of the test compounds before adding the substrate, and fluorescence intensity was subsequently measured. […] Additionally, the elongation of the side chain in compounds 2a–d completely abolished the activity.
In vitro enzymatic inhibition was measured using the USP‐7 inhibitor screening assay kit (catalog #79,256, BPS Bioscience, San Diego, CA, USA) according to the manufacturer's instructions. Briefly, compound stock solutions were prepared in DMSO and diluted tenfold to obtain the working solutions. Then, these solutions and the vehicle control were added to the black 384‐wells plate, together with the USP‐7 enzyme, previously diluted as required by the manufacturer, and incubated at rt for 30 min. Then, the Ub‐AMC substrate was diluted 400‐fold and added to the plate, followed by incubation at rt for 30 min. The final DMSO amount in each well was 1%.

[9] = Parallel artificial membrane permeability assay (PAMPA); type: in vitro ADME; conditions: for LogPe ± SD: PBS pH 7.4, 5 h
Method: The assay was prepared as follows: 300 μL of PBS pH 7.4 (5% DMSO) was placed in the acceptor wells. A phosphatidylcholine (PC) solution was obtained by dissolving and vortexing PC at 1% w/v in dodecane and solubilized using an ultrasound bath until a clear solution was obtained. […] of this solution was deposited on the membrane portion of the donor well. 150 μL of each molecule, at 100–250 μM final concentration (5% DMSO), was pipetted in the […]. The acceptor (Multiscreen transport Receiver Plate, 96‐well, polystyrene, Millipore) and donor plates (Multiscreen Filter Plates, IP, […], clear, hydrophobic PVDF, Millipore) were subsequently assembled and incubated for 5 h under gentle orbital shaking. The experiment was conducted in duplicate. Lucifer yellow was used as a negative control to establish the integrity of the membrane, quantifying its concentration in both acceptor and donor solutions using fluorescence. […] The results are expressed as means ± SEM of at least three independent experiments.

USP‐7 = system: USP‐7; set-up: method as in PMID 37298148; conditions: in vitro and in‐cell assays, neuroblastoma‐related cells; cited from earlier work
[10] = system: neuroblastoma HTLA‐230 cells; set-up: method as in PMID 36780313; conditions: cited from earlier work

T1 sequence (Q93009 whole entry): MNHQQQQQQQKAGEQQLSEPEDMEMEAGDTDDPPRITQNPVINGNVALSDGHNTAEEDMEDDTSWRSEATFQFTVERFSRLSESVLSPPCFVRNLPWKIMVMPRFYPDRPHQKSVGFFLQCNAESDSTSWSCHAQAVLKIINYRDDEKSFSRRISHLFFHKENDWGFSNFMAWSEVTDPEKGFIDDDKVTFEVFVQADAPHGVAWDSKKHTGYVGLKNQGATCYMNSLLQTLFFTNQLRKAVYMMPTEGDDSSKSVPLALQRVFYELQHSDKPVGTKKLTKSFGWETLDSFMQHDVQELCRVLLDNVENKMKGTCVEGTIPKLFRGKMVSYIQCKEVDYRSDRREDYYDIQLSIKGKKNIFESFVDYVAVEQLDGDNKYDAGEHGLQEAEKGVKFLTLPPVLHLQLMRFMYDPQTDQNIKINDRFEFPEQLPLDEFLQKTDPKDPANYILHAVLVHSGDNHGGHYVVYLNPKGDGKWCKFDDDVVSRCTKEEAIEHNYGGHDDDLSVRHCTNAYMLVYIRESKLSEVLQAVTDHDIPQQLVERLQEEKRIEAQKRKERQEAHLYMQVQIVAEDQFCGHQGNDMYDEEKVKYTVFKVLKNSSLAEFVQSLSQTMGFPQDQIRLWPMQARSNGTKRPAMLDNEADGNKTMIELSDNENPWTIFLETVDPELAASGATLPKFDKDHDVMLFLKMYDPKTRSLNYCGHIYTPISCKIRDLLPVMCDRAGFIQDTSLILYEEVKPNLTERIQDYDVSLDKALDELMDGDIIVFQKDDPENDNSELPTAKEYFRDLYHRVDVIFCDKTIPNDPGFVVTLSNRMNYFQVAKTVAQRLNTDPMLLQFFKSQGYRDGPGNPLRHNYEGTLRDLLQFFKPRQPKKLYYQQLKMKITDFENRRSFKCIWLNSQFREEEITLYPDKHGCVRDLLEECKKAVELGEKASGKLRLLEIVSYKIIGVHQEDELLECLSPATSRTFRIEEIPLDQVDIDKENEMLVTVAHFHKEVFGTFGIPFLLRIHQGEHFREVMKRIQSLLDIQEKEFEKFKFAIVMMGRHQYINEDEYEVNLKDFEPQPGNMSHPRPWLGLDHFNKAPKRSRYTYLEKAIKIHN

| SMILES | Cell growth percent [%] [1] | Cell growth percent [%] [2] | Cell growth percent [%] [3] | Cell growth percent [%] [4] | Cell growth percent [%] (A549 lung adenocarcinoma) | Cell growth percent [%] [5] | Cell growth percent [%] [6] | Cell growth percent [%] [7] | Cell growth percent [%] [8] | IC50 (recombinant USP‐7) | LogPe ± SD ([9]; 100 μM) | LogPe ± SD ([9]; 250 μM) | membrane permeability (in words) ([9]; 100 and 250 μM) | inhibition of USP‐7 enzymatic activity and expression levels (USP‐7) | inhibition of migratory ability [10] |
| --- | --- | --- | --- | --- | --- | --- | --- | --- | --- | --- | --- | --- | --- | --- | --- |
| N.N.[Cl][Pt][Cl] [Cis ‐Pt, Cisplatinum, reference compound] | 29.33% | 72.74% | 70.59% | 44.40% | 59.09% | 26.83% | 38.07% | 86.07% | – | – | – | – | – | – | – |
| CCOC(=O)c1cnn(CC(C)OC(=O)Nc2ccccc2F)c1N (stereo not drawn) [Compound 1a, Ethyl 5‐Amino‐1‐(2‐(((2‐Fluorophenyl)Carbamoyl)Oxy)Propyl)‐1H‐Pyrazole‐4‐Carboxylate] | 105.06% | 109.46% | 98.76% | 95.28% | 104.43% | 102.26% | 97.50% | 106.29% | 105.96% | 2.19 ± 0.49 µM | – | – | – | – | – |
| CCOC(=O)c1cnn(CC(C)OC(=O)Nc2cccc(F)c2)c1N (stereo not drawn) [Compound 1b, Ethyl 5‐Amino‐1‐(2‐(((3‐Fluorophenyl)Carbamoyl)Oxy)Propyl)‐1H‐Pyrazole‐4‐Carboxylate] | 95.63% | 104.08% | 135.91% | 115.09% | 39% and 39.06% | 98.78% | 95.70% | 73.53% | 68.07% | 1.48 ± 0.31 µM | – | – | – | – | – |
| CCOC(=O)c1cnn(CC(C)OC(=O)Nc2ccc(F)cc2)c1N (stereo not drawn) [Compound 1c, Ethyl 5‐Amino‐1‐(2‐(((4‐Fluorophenyl)Carbamoyl)Oxy)Propyl)‐1H‐Pyrazole‐4‐Carboxylate] | 108.28% | 108.02% | 101.55% | 88.22% | 114.96% | 99.94% | 100.11% | 103.39% | 112.09% | 1.8 ± 0.39 µM | – | – | – | – | – |
| CCOC(=O)c1cnn(CC(C)OC(=O)Nc2cccc(C(F)(F)F)c2)c1N (stereo not drawn) [Compound 1d, Ethyl 5‐Amino‐1‐(2‐(((3‐(Trifluoromethyl)Phenyl)Carbamoyl)Oxy)Propyl)‐1H‐Pyrazole‐4‐Carboxylate] | 106.40% | 113.85% | 95.04% | 90.77% | 90.69% | 99.40% | 100.73% | 119.94% | 96.18% | 1.31 ± 0.21 µM | −4.54 ± 0.02 | −4.81 ± 0.00 | highly permeable | – | – |
| CCOC(=O)c1cnn(CC(C)O)c1NC(=O)Nc1cccc(F)c1 (stereo not drawn) [STIRUR‐41, reference compound] | 99.83% | 110.71% | 97.17% | 94.26% | 38.88% | 100.50% | 111.36% | 64.32% | 38.50% | 2.77 ± 0.56 µM | – | – | – | inhibit both the enzymatic activity of USP‐7 and its expression levels | significant inhibition |
